Reference: patent EP2601945A1 (Thomale, Jürgen, priority 2011, dated 2013)
Where “and” joins values, the source holds several entries; their conditions need not be identical. Equal values may be shown once. Entries after “also recorded” stand apart in the source; their conditions may differ.

Columns and labels:
Pt-GG adducts in DNA [1] = assay: In vivo screening for cis-platin uptake inhibitors and DPH co-administration, ICA of Pt-GG adducts; design: species or system mice
Procedure: (§1) The sacrificed animals were immediately dissected. Kidneys and lungs were submerged in embedding medium (Tissue-Tek O.C.T. Compound) and frozen in liquid nitrogen. Cochleae were dissected and fixed by intralabyrinthine perfusion with Carnoy's solution (3 hours; for DNA adduct staining) or with formaldehyde (4 % in PBS; 1 hour; for OCT protein staining). Cochleae were decalcified in EDTA solution (10 % w/v in PBS) for 3 days and then placed in sucrose solutions (5 % in PBS for 12 hours and 15 % in PBS for 5 hours). After that samples were imbedded in Tissue-Tek medium, frozen and cryosections of 10 µm cut.
(§2) Frozen tissue sections of the inner ear or kidneys on ImmunoSelect slides were fixed in methanol at -20°C for at least 2 hours or overnight and then rehydrated for 10 minutes in PBS, at room temperature. To provide better antibody penetration in the tissue structures the samples underwent alkaline permeabilisation of cytoplasmic and nuclear membranes for 5 minutes at 0°C, followed by washing in PBS at room temperature for 5 minutes. The proteolytic cleavage of cytoplasmic and nuclear proteins was performed in two steps. At first, a pre-warmed pepsin solution (60 µg /ml for cell culture or 100 µg/ml for tissue sections in PBS/HCl) was applied onto the tissue sections and incubated for 10 minutes at 37°C in a humidified chamber. The incubation with pepsin was followed by washing in PBS for 10 minutes at room temperature. In a second step tissue sections were incubated with pre-warmed proteinase K solution (40 µg/ml for cell cultures or 50-100 µg /ml for tissue sections in proteinase K buffer) for 10 minutes at 37°C in a humidified chamber. Subsequently the sections were washed in 0.2 % glycine in PBS for 10 minutes at room temperature. Non-specific binding of the antibodies was inhibited by incubation with a blocking solution of 1 % casein in PBS for 30 minutes at room temperature. The samples were then incubated with a monoclonal antibody (R-C18, Liedert et al., 2006) specific for Pt-GG adducts in DNA (0.1 µg/ml in 0.1 % BSA/PBS) over night at 4°C in the humidified chamber. Subsequently, the slides were washed in 0.05 % Tween 20 in PBS for 5 minutes at room temperature and then in PBS for 5 minutes. The incubation with secondary Cy3-labeled rabbit anti-(rat Ig) antibodies, was performed (0.2 µg/ml in 0.1 % BSA/PBS) for 60 minutes at 37°C in the humidified chamber, followed by washing in 0.05 % Tween 20 in PBS for 5 minutes at room temperature and then in PBS for 5 minutes. The nuclear DNA was counterstained with DAPI (1 µg/ml in PBS) for 30 minutes at room temperature. The slides were then washed in PBS. Finally, the samples were embedded with a densification compound "[…]". The quantification of immuno- and DNA-fluorescence was performed by means of a microscope-coupled digital image analysis system ACAS 6.0 Cytometry Analysis System. Adduct levels in the nuclear DNA of individual cells were calculated by normalizing antibody-derived fluorescence signals to the corresponding DNA content of the same nucleus, and were expressed as arbitrary fluorescence units (AFUs). Data were assigned to specific cell types as determined by histochemistry.
The mice were separated into two groups for pretreatment with low or high doses of the test compounds. […] The low dose group received half the dose of the high dose group (50, 50, 30 or 10 mg/kg, respectively). […] Cochleae and kidneys were dissected for immunostaining and ICA analyses of Pt-GG adduct levels in specific cell types (Figure 8). In tissue sections from mice pretreated with quinine or butylscopolamine no inhibition of DNA platination was observed, independent of the dosing, in either of the three target cell types (renal tubulus epithelium cells (Figure 8 A), cochlear marginal cells (Figure 8B) and outer hair cells (Figure 8 C)). […]

[2] = test system: human cancer cell lines established from tumors (lung, bladder, testis); assay: Co-application of cis-platin and DPH to cancer cell lines: DNA adducts by ICA; type: cell-based; conditions: cis-platin alone or in combination with DPH
Kras/p53 deficient mice = assay: Survival upon repetitive cis-platin treatment; type: in vivo; conditions: repetitive cis-platin 9 mg/kg in combination with DPH 50 mg/kg versus cis-platin alone (Figure 16)
Pt-GG adducts in DNA [3] = assay: ICA of Pt-GG adducts in cochlear cells of XPA-/- versus wild type mice; type: in vivo
Procedure: Frozen tissue sections of the inner ear or kidneys on ImmunoSelect slides were fixed in methanol at -20°C for at least 2 hours or overnight and then rehydrated for 10 minutes in PBS, at room temperature. To provide better antibody penetration in the tissue structures the samples underwent alkaline permeabilisation of cytoplasmic and nuclear membranes for 5 minutes at 0°C, followed by washing in PBS at room temperature for 5 minutes. The proteolytic cleavage of cytoplasmic and nuclear proteins was performed in two steps. At first, a pre-warmed pepsin solution (60 µg /ml for cell culture or 100 µg/ml for tissue sections in PBS/HCl) was applied onto the tissue sections and incubated for 10 minutes at 37°C in a humidified chamber. The incubation with pepsin was followed by washing in PBS for 10 minutes at room temperature. […] The quantification of immuno- and DNA-fluorescence was performed by means of a microscope-coupled digital image analysis system ACAS 6.0 Cytometry Analysis System. Adduct levels in the nuclear DNA of individual cells were calculated by normalizing antibody-derived fluorescence signals to the corresponding DNA content of the same nucleus, and were expressed as arbitrary fluorescence units (AFUs). Data were assigned to specific cell types as determined by histochemistry. […]

hearing capability = assay: BAER hearing test in XPA-/- and wild type mice after low dose cis-platin; conditions: cis-platin cumulative dose 3.5 mg/kg within two weeks, NER-deficient XPA-/- mice
Pt-GG adducts in DNA [4] = assay: Immunocytological assay (ICA) of Pt-GG adducts in kidney and cochlea cells after cis-platin treatment; type: in vivo, mice; conditions: cis-platin 12.5 mg/kg single dose; measured 2, 16, 48, 72 h
Pt-GG adducts in DNA [5] = assay: as above; type: in vivo, mice
Procedure: as §1, §2
24 hours later, the inner ears and kidneys were dissected, kidneys were frozen immediately and cochleae were fixed and decalcified. Cryosections (10 µm) prepared from the tissues were placed onto specific adhesion slides. Slides were then immunostained for the visualization of platinum-guanine-guanine (Pt-GG) intrastrand adducts in the nuclei of individual cells by using the adduct-specific monoclonal antibody R-C18 in an immunocytological assay (ICA) (Liedert et al., 2006). The tissue sections were then stained with a secondary Cy3-labeled goat-anti-rat antibody (Cy3), counterstained with DAPI for nuclear DNA, and analyzed in the fluorescence microscope (Figure 1). Serial sections from the same tissues were stained for morphological orientation with hematoxyline and eosin (H&E). […]

[6] = DPH 0 to 57 mg/kg i.p. 30 minutes prior to cis-platin 10 mg/kg (Figure 9)
[7] = DPH 57 mg/kg 30 minutes before cis-platin 12.5 mg/kg, 2, 16, 48, 72 hours
[8] = high dose of 60 mg/kg i.p. 1 h before cis-platin 10 mg/kg, 24 h
[9] = cis-platin 10 mg/kg i.p., cochlea, 24 h (Figure 3 B)
[10] = cis-platin 10 mg/kg i.p., kidney
[11] = cis-platin 10 mg/kg i.p., kidney, 24 h (Figure 3 A)

Q: `CN(C)CCOC(c1ccccc1)c1ccccc1` [DPH, diphenhydramine] was tested. Which “adduct accumulation in proximal tubule cells and marginal cells” value (Pt-GG adducts in DNA [1]; [6]) did it give?
A: dose-dependent inhibition

Q: What about the “adduct levels in distal tubule cells and basal and intermediate cells of the stria vascularis” value (Pt-GG adducts in DNA [1]; [6]) of the same compound?
A: No significant alterations

Q: And the “DNA platination in marginal and outer hair cells versus cis-platin alone, all time points” value (Pt-GG adducts in DNA [1]; [7])?
A: drastically decreased

Q: What about the “capability to repair the DNA damage” value (Pt-GG adducts in DNA [1]; [7]) of the same compound?
A: no obvious differences

Q: And the “inhibition of the formation of Pt-adducts in outer hair cells and marginal cells” value (Pt-GG adducts in DNA [1]; DPH along with cis-platin (description))?
A: about 70%

Q: And the “formation of Pt-adducts in dorsal root ganglion (DRG) neurons” value (Pt-GG adducts in DNA [1]; cis-platin 15 mg/kg with DPH 50 mg/kg, 24 h (Figure 9 C))?
A: inhibited; also recorded: significantly reduced

Q: And the “shielding from DNA damage, cochlear marginal cells” value (Pt-GG adducts in DNA [1]; [8])?
A: 70%

Q: And the “shielding from DNA damage, outer hair cells” value (Pt-GG adducts in DNA [1]; [8])?
A: about 50%

Q: What about the “shielding from DNA damage, proximal tubule cells” value (Pt-GG adducts in DNA [1]; [8]) of the same compound?
A: 75%

Q: What about the “adduct levels in other cell types of the inner ear” value (Pt-GG adducts in DNA [1]; repetitive cis-platin 5 mg/kg every second day plus DPH 57 mg/kg) of the same compound?
A: remained unchanged

Q: What about the “adducts in target cells of kidney and inner ear versus cis-platin alone group” value (Pt-GG adducts in DNA [1]; repetitive cis-platin 5 mg/kg every second day plus DPH 57 mg/kg (Figure 12)) of the same compound?
A: by far less adducts

Q: And the “effect on the formation of DNA adducts (ICA)” value [2]?
A: no inhibitory effect

Q: What about the survival (Kras/p53 deficient mice) of the same compound?
A: improved survival rates

Q: `N.N.[Cl][Pt][Cl]` [cis-platin, cis-diaminedichloro-platinum(II)] was tested. Which “adduct levels in inner ear cis-platin target cells, XPA -/- mice versus wild type littermates” value (Pt-GG adducts in DNA [3]; cis-platin cumulated dose 3.5 mg/kg (Figure 7 B legend)) did it give?
A: more than 3 times

Q: And the “levels of DNA damage in marginal cells, XPA-/- mice compared to wild type littermates” value (Pt-GG adducts in DNA [3]; cis-platin cumulative dose 3.5 mg/kg (Figure 7 B))?
A: about 2.7 fold

Q: And the “reduction of hearing capability (BAER), XPA-/- mice” value (hearing capability)?
A: 45% and ~50%

Q: What about the “time at which Pt-GG levels peaked, OHCs” value (Pt-GG adducts in DNA [4]) of the same compound?
A: 16 h

Q: What about the “time at which Pt-GG levels peaked, marginal cells” value (Pt-GG adducts in DNA [4]) of the same compound?
A: 48 h

Q: And the “levels of Pt-GG adducts, OHC vs. adjacent cells in the organ of Corti” value (Pt-GG adducts in DNA [5]; cis-platin 10 mg/kg i.p.)?
A: 11 fold

Q: And the “levels of Pt-GG adducts, marginal cells compared to other cell types in the stria vascularis” value (Pt-GG adducts in DNA [5]; cis-platin 10 mg/kg i.p.)?
A: 5 fold

Q: And the “levels of Pt-GG adducts, adjacent cells in the organ of Corti” value (Pt-GG adducts in DNA [5]; [9])?
A: 1.19 AFUs

Q: What about the “levels of Pt-GG adducts, other cell types in the stria vascularis” value (Pt-GG adducts in DNA [5]; [9]) of the same compound?
A: 2.08 AFUs

Q: And the “levels of Pt-GG adducts, OHC (outer hair cells)” value (Pt-GG adducts in DNA [5]; cis-platin 10 mg/kg i.p., cochlea, organ of Corti, 24 h (Figure 3 B))?
A: 13.26 AFUs

Q: And the “levels of Pt-GG adducts, marginal cells” value (Pt-GG adducts in DNA [5]; cis-platin 10 mg/kg i.p., cochlea, stria vascularis, 24 h (Figure 3 B))?
A: 9,85 AFUs

Q: What about the “platination level, distal tubular cells versus glomerulus cells” value (Pt-GG adducts in DNA [5]; [10]) of the same compound?
A: twice as high

Q: And the “platination level, proximal tubular cells versus distal tubular cells” value (Pt-GG adducts in DNA [5]; [10])?
A: 7 fold

Q: And the “platination level (Pt-GG adducts), distal tubular cells” value (Pt-GG adducts in DNA [5]; [11])?
A: 2.61 AFUs

Q: What about the “platination level (Pt-GG adducts), glomerulus cells” value (Pt-GG adducts in DNA [5]; [11]) of the same compound?
A: 0.97 AFUs

Q: What about the “platination level (Pt-GG adducts), proximal tubular cells” value (Pt-GG adducts in DNA [5]; [11]) of the same compound?
A: 18.97 AFUs

Q: And the “adduct levels of non-marginal cells of the stria vascularis, lower than marginal cells” value (Pt-GG adducts in DNA [5]; cis-platin 10 mg/kg single dose, 24 h, turns of the cochlea (Figure 4))?
A: 10 fold
